These results are taken from PMC8815882, “Screening the pandemic response box identified benzimidazole carbamates, Olorofim and ravuconazole as promising drug candidates for the treatment of eumycetoma” (PLoS Neglected Tropical Diseases, 2022).

In the experiment the test system is M. mycetomatis genome strain MM55. The experiment is described as follows: CLSI M38-A2 based in vitro susceptibility screening (XTT or resazurin), growth at fixed concentration. Type of experiment: cell-based, Madurella mycetomatis. Conditions: Madurella mycetomatis; for Percent fungal survival at 100 µM: read-out: Percentage survival at 100um, 100 uM A (second replicate column). Background: Tetrazolium assays rely on reduction of a dye to a coloured formazan, in cell work by metabolically active cells.

[1] abbreviates: 25 uM, mean of three replicates, read-out: Percentage survival at 25um, 25 uM mean.
Where [2] appears, read: 25 uM, replicate A, read-out: Percentage survival at 25um, 25 um A.
[3] abbreviates: 25 uM, replicate B, read-out: Percentage survival at 25um, 25 uM B.
[4] abbreviates: 25 uM, replicate C, read-out: Percentage survival at 25um, 25 uM C.
Setting [5] is: mean of three replicates, read-out: Percentage survival at 100um, 100 uM mean.
The mark [6] stands for this setting: replicate 1, read-out: Percentage survival at 100um, 100 uM A (first replicate column).
Where [7] appears, read: replicate 3, read-out: Percentage survival at 100um, 100 uM A (third replicate column).
The mark [8] stands for this setting: 25 uM, mean, read-out: Percentage survival at 25um, 25 uM mean.
The mark [9] stands for this setting: mean, read-out: Percentage survival at 100um, 100 uM mean.
Setting [10] is: replicate (first column), read-out: Percentage survival at 100um, 100 uM A.
Setting [11] is: replicate (second column), read-out: Percentage survival at 100um, 100 uM A.
The mark [12] stands for this setting: replicate (third column), read-out: Percentage survival at 100um, 100 uM A.
The mark [13] stands for this setting: 25 uM, mean of replicates, MM55, read-out: Percentage survival at 25um, 25 uM mean.
The mark [14] stands for this setting: 25 uM, replicate A, MM55, read-out: Percentage survival at 25um, 25 um A.
[15] abbreviates: 25 uM, replicate B, MM55, read-out: Percentage survival at 25um, 25 uM B.
Where [16] appears, read: 25 uM, replicate C, MM55, read-out: Percentage survival at 25um, 25 uM C.
Setting [17] is: mean of replicates, MM55, read-out: Percentage survival at 100um, 100 uM mean.
Where [18] appears, read: replicate 1, MM55, read-out: Percentage survival at 100um, 100 uM A.
The mark [19] stands for this setting: replicate 2, MM55, read-out: Percentage survival at 100um, 100 uM A.
The mark [20] stands for this setting: replicate 3, MM55, read-out: Percentage survival at 100um, 100 uM A.
[21] abbreviates: 25 uM, mean of replicates, read-out: Percentage survival at 25um, 25 uM mean.
[22] abbreviates: mean of replicates, read-out: Percentage survival at 100um, 100 uM mean.
Where [23] appears, read: replicate 1, read-out: Percentage survival at 100um, 100 uM A.
Setting [24] is: replicate 2, read-out: Percentage survival at 100um, 100 uM A.
Where [25] appears, read: replicate 3, read-out: Percentage survival at 100um, 100 uM A.
[26] abbreviates: first replicate column, read-out: Percentage survival at 100um, 100 uM A.
Setting [27] is: second replicate column, read-out: Percentage survival at 100um, 100 uM A.
Setting [28] is: third replicate column, read-out: Percentage survival at 100um, 100 uM A.

Where two headings read alike, the source gives them in different places.

Turning to `COc1cc2c(O)c3c(c(-c4ccc5c(c4)OCO5)c2cc1OC)C(=O)OC3` [MMV102270], the activity at 25 µM by setting is: under setting [1], 80.6%; under setting [2], 79.5%; under setting [3], 84.8%; under setting [4], 77.5%. Besides, the activity at 100 µM runs as follows: under setting [5], 107%; under setting [6], 93.7%; under setting [7], 153%. Moreover, where the note is “replicate 2”, the Percent fungal survival at 100 µM is 74.4%.
In the case of `O=C(N[C@H](Cc1cccc2ccccc12)C(=O)NCCc1c[nH]cn1)C1Cc2ccccc2C1` [MMV1782109], the activity at 25 µM was found to be 80.7% under setting [8], 88.1% under setting [2], 81.3% under setting [3] and 72.6% under setting [4]. The activity at 100 µM is, setting by setting: under setting [9], 67%; under setting [10], 69.9%; under setting [11], 67.6%; under setting [12], 63.4%.
As to `CC1(C)CC(NC(=O)C(=O)Nc2ccc(Cl)cc2)CC(C)(C)N1` [MMV1580501], the activity at 25 µM was determined as 79.5% under setting [13], 75.9% under setting [14], 89.4% under setting [15] and 73.3% under setting [16]. For the same molecule, the activity at 100 µM runs as follows: under setting [17], 74.7%; under setting [18], 76.9%; under setting [19], 78.1%; under setting [20], 69%.
On to `CCCCOC(=O)Nc1cc2nc(C3CCCCC3)[nH]c2cc1N(CC)CC` [MMV1578842], for which the activity at 25 µM runs as follows: under setting [21], 88.1%; under setting [2], 97.2%; under setting [3], 93.7%; under setting [4], 73.4%. Moreover, the activity at 100 µM by setting is: under setting [22], 93.8%; under setting [23], 93.6%; under setting [24], 90.8%; under setting [25], 96.9%.
For the molecule `Nc1nc(O)c2ncn(COC(CO)CO)c2n1` [MMV001761], the activity at 25 µM turned out to be 69.6% under setting [1], 86.2% under setting [2], 64.3% under setting [3] and 58.4% under setting [4]. Besides, the activity at 100 µM by setting is: under setting [26], 93.4%; under setting [5], 87%; under setting [27], 85.2%; under setting [28], 82.5%.
As to `O=C(CCc1ccc2c(c1)OCO2)NCc1ccc(-c2ccccc2F)cc1` [MMV1782110], the activity at 25 µM by setting is: under setting [8], 78.7%; under setting [2], 102%; under setting [3], 62.1%; under setting [4], 71.9%. Besides, the activity at 100 µM under setting [9] is 77.4%, the activity at 100 µM under setting [10] worked out at 79%, the activity at 100 µM under setting [11] turned out to be 73.6% and the activity at 100 µM under setting [12] was 79.5%.
In the case of `[N-]=[N+]=N[C@H]1C[C@H](n2ccc(=O)[nH]c2=O)O[C@@H]1CO` [MMV1593520], the activity at 25 µM amounted to 94.3% under setting [2]; 107% (read-out: Percentage survival at 25um, 25 uM B); 100% (read-out: Percentage survival at 25um, 25 uM C); 100% (read-out: Percentage survival at 25um, 25 uM mean). Also, the activity at 100 µM by setting is: under setting [26], 91.5%; under setting [5], 87%; under setting [27], 80.1%; under setting [28], 89.4%.
On to `COc1cc(Cc2cnc(N)nc2N)c2c(c1OC)OC(C1CC1)C=C2` (stereo not shown) [MMV1613563], for which the activity at 25 µM runs as follows: under setting [21], 99.9%; under setting [2], 106%; under setting [3], 107%; under setting [4], 86.9%. Also, the activity at 100 µM runs as follows: under setting [22], 91.5%; under setting [6], 93.6%; under setting [7], 87.7%. Besides, the Percent fungal survival at 100 µM (replicate 2) stood at 93.2%.
For `COc1cc(NC(=O)CN2C(=O)NC(c3ccccc3)(c3ccccc3)C2=O)cc(OC)c1` [MMV1578572], the activity at 25 µM runs as follows: under setting [8], 72%; under setting [2], 95.2%; under setting [3], 47.1%; under setting [4], 73.6%. The activity at 100 µM under setting [9] came to 79.3%, the activity at 100 µM under setting [10] stood at 83.4%, the activity at 100 µM under setting [11] came to 65.2% and the activity at 100 µM under setting [12] is 89.3%.
Regarding `OCCC#Cc1nc(-c2ccc(F)cc2)c(-c2ccncc2)n1CCCc1ccccc1` [MMV1580797], the activity at 25 µM runs as follows: under setting [1], 67.7%; under setting [2], 62%; under setting [3], 74.7%; under setting [4], 66.4%. The activity at 100 µM came out at 53.2% under setting [26], 57.6% under setting [5], 58.3% under setting [27] and 61.4% under setting [28].
Regarding `CCCCCCC1c2ccc(O)cc2Oc2cc(O)ccc21` [MMV1593535], the activity at 25 µM reads like this: under setting [8], 72.3%; under setting [2], 72.8%; under setting [3], 89.7%; under setting [4], 54.6%. In addition, the activity at 100 µM is 21.5% under setting [9], 10.9% under setting [10], 14.4% under setting [11] and 39.1% under setting [12].
Take `O=[N+]([O-])c1cn(Cc2nc(O)nc(O)c2Br)cn1` [MMV1579777]: the activity at 25 µM is, setting by setting: under setting [21], 94.1%; under setting [2], 98.9%; under setting [3], 96.8%; under setting [4], 86.6%. The activity at 100 µM is, setting by setting: under setting [22], 87.1%; under setting [23], 96.7%; under setting [24], 83.9%; under setting [25], 80.7%.
For the molecule `O=C(NCc1ccc(F)cc1)c1c(O)c2ncccc2[nH]c1=O` [MMV1782097], the activity at 25 µM is 95.5% under setting [13], 97.7% under setting [14], 100% under setting [15] and 88.2% under setting [16]. In addition, the activity at 100 µM is, setting by setting: under setting [17], 82.8%; under setting [18], 86.6%; under setting [19], 79.1%; under setting [20], 82.7%.
As to `Cc1cccc(CC(=O)N[C@H]2CCOC2=O)c1` [MMV1579782], the activity at 25 µM runs as follows: under setting [21], 94%; under setting [2], 95.3%; under setting [3], 93.9%; under setting [4], 92.9%. Moreover, the activity at 100 µM stood at 90.9% under setting [22], 95.1% under setting [23], 88.4% under setting [24] and 89.2% under setting [25].
With `COc1ccc2c(c1)cc(CNC(=O)c1cc3ccccc3o1)n2CC(=O)O` [MMV1581553], the activity at 25 µM was 76.7% under setting [8], 87.4% under setting [2], 70.5% under setting [3] and 72.3% under setting [4]. The activity at 100 µM is, setting by setting: under setting [9], 88.6%; under setting [10], 90%; under setting [11], 85%; under setting [12], 90.9%.
Take `FC(F)(F)c1cc(C(F)(F)F)c2ccc3nc(-c4nnco4)cn3c2n1` [MMV690555]: the activity at 25 µM runs as follows: under setting [13], 91.6%; under setting [14], 100%; under setting [15], 96.8%; under setting [16], 77.9%. Besides, the activity at 100 µM under setting [17] is 81.1%, the activity at 100 µM under setting [18] amounted to 87%, the activity at 100 µM under setting [19] amounted to 83.1% and the activity at 100 µM under setting [20] is 73.1%.
Regarding `O=C(CC1Sc2ncnn2C1=O)Nc1ccc(Br)cc1` (stereo not shown) [MMV214956], the activity at 25 µM by setting is: under setting [1], 63.2%; under setting [2], 56.2%; under setting [3], 60%; under setting [4], 73.5%. The activity at 100 µM is -1.13% under setting [5], -7.27% under setting [6] and 3.91% under setting [7]. Besides, the Percent fungal survival at 100 µM (replicate 2) was -0.0182%.
